System: 6xHis-tagged CARM1 EVH1 domain (CARM1 28-140)
Assay: FP assay with fluorescein-labelled BAF155 peptide and 6xHis-CARM1 28-140
Type: binding
Conditions: fluorescein-labelled BAF155 peptide 5 nM; protein titrated; 50 mM HEPES pH 7.5, 150 mM NaCl, 0.005% NP-40, 0.5 mM EDTA; 2 h, room temperature; triplicates; ex 485/20 nm, em 528/20 nm
Procedure: The DNA fragment encoding CARM1 residues 28–140 was cloned into pET21a expression vector (Novagen, Madison, WI). DNA construct was transformed into BL21(DE3)pLysS E. coli expression strain. Luria–Bertani media (1–2L) was seeded with 10 ml of overnight starter culture and grown at 37 °C until OD600 nm reached 0.6. Protein expression was then induced with the addition of 0.2 mM isopropyl β-D-1-thiogalactopranoside for 4 h at ambient temperature. Bacterial pellets were then lysed by sonication on ice in lysis buffer (50 mM Tris, pH 7.5, 150 mM NaCl, 0.05% NP-40, supplemented with 1 × protease inhibitor cocktail before use) with 70% amplitude, 30 s on, 30 s off, 10 cycles. […] Protein concentration was then determined using Bradford assay and protein purity was assessed by SDS–PAGE and Coomassie Blue staining.
Fluorescein-labelled BAF155 peptide (constant final concentration at 5 nM) was mixed with titrations of purified recombinant proteins or BSA control in binding buffer (50 mM HEPES, pH 7.5, 150 mM NaCl, 0.005% NP-40, 0.5 mM EDTA) and incubated in dark at room temperature for 2 h. […] Polarization measurements were then corrected for background contributions to the measured intensity by subtracting the parallel and perpendicular intensity readings, from the blank buffer-only wells, from the intensity readings for each data point. […]

bovine serum albumin (BSA): bovine serum albumin control
Fluorescence polarization change: no change in signal
